Measurements taken from patent publication US20240083857A1, “2-Methyl-Quinazolines” (Bayer Pharma Aktiengesellschaft, priority 2017, published 2024).

Assays:
[1] = target: human SOS1 (loading of human K-Ras^G12C-GDP with fluorescent GTP-analog) (Homo sapiens, UniProt Q07889); experiment: Biochemical assay 3: K-Ras^G12C activation assay by hSOS1 (HTRF); conditions: no GTP; read-out: Assay 3 (KRAS-Activation by SOS no GTP) activity expressed as IC50
[2] = target: human SOS1 (nucleotide exchange of K-Ras^G12C) (Homo sapiens, UniProt Q07889); experiment: Biochemical assay 2: K-Ras^G12C activation assay by hSOS1 at high GTP concentration (HTRF); conditions: high GTP; read-out: Assay 2 (KRAS-Activation by SOS high GTP) activity expressed as IC50

For `COc1cc2nc(C)nc(NC(C)c3ccc(-c4ccccc4CN4CC5(CNC(=O)N5)C4)s3)c2cc1OC` (stereo not shown) [Example 313, 2-[2-(5-{1-[(6,7-dimethoxy-2-methylquinazolin-4-yl)amino]ethyl}thiophen-2-yl)benzyl]-2,5,7-triazaspiro[3.4]octan-6-one], the IC50 [1] was 150 nM and the IC50 [2] was 162 nM.
For `COc1cc2nc(C)nc(NC(C)c3ccc(-c4ccc(F)cc4CNC(=O)[C@@H]4CCCN4)s3)c2cc1OC` (stereo partly drawn) [Example 314, N-[2-(5-{1-[(6,7-dimethoxy-2-methylquinazolin-4-yl)amino]ethyl}thiophen-2-yl)-5-fluorobenzyl]-L-prolinamide], the IC50 [1] was 90.1 nM and the IC50 [2] was 87.3 nM.
In the case of `COc1cc2nc(C)nc(NC(C)c3ccc(-c4ccccc4CNCC(F)F)s3)c2cc1OC` (stereo not shown) [Example 315, N-{1-[5-(2-{[(2,2-difluoroethyl)amino]methyl}phenyl)thiophen-2-yl]ethyl}-6,7-dimethoxy-2-methylquinazolin-4-amine], the IC50 [1] is reported as 1280 nM and the IC50 [2] is reported as 967 nM.
In the case of `COc1cc2nc(C)nc(NC(C)c3ccc(-c4ccccc4CN4CCC4)s3)c2cc1OC` (stereo not shown) [Example 317, N-[1-{5-[2-(azetidin-1-ylmethyl)phenyl]thiophen-2-yl}ethyl]-6,7-dimethoxy-2-methylquinazolin-4-amine], the IC50 [1] is reported as 88.4 nM and the IC50 [2] is reported as 62.7 nM.
`COc1cc2nc(C)nc(NC(C)c3ccc(-c4ccccc4CN4CC[C@H]4CO)s3)c2cc1OC` (stereo partly drawn) [Example 318, {1-[(2S)-(5-{1-[(6,7-dimethoxy-2-methylquinazolin-4-yl)amino]ethyl}thiophen-2-yl)benzyl]azetidin-2-yl}methanol] was tested, and the IC50 [1] was 221 nM and the IC50 [2] was 167 nM.
Compound `COc1cc2nc(C)nc(NC(C)c3ccc(-c4ccccc4CN4CC(N(C)C)C4)s3)c2cc1OC` (stereo not shown) [Example 319, N-{1-[5-(2-{[3-(dimethylamino)azetidin-1-yl]methyl}phenyl)thiophen-2-yl]ethyl}-6,7-dimethoxy-2-methylquinazolin-4-amine] has an IC50 [1] of 127 nM and an IC50 [2] of 119 nM.
For `COc1cc2nc(C)nc(NC(C)c3ccc(-c4ccccc4CN4CC(F)(F)C4)s3)c2cc1OC` (stereo not shown) [Example 320, N-[1-(5-{2-[(3,3-difluoroazetidin-1-yl)methyl]phenyl}thiophen-2-yl)ethyl]-6,7-dimethoxy-2-methylquinazolin-4-amine], the IC50 [1] was 3490 nM and the IC50 [2] was 1300 nM.
For `COc1cc2nc(C)nc(NC(C)c3ccc(-c4ccccc4CN(C)CC(F)(F)F)s3)c2cc1OC` (stereo not shown) [Example 321, 6,7-di methoxy-2-methyl-N-{1-[5-(2-{[methyl(2,2,2-trifluoroethyl)amino]methyl}phenyl)thiophen-2-yl]ethyl}quinazolin-4-amine], the IC50 [1] was 12800 nM and the IC50 [2] was 6240 nM.
`COc1cc2nc(C)nc(NC(C)c3ccc(-c4ccccc4CN4CC(F)C4)s3)c2cc1OC` (stereo not shown) [Example 322, N-[1-(5-{2-[(3-fluoroazetidin-1-yl)methyl]phenyl}thiophen-2-yl)ethyl]-6,7-dimethoxy-2-methylquinazolin-4-amine] was tested, and the IC50 [1] was 268 nM and the IC50 [2] was 247 nM.
Compound `COc1cc2nc(C)nc(NC(C)c3ccc(-c4ccc(Cl)cc4CN(C)C)s3)c2cc1OC` (stereo not shown) [Example 323, N-[1-(5-{4-chloro-2-[(dimethylamino)methyl]phenyl}thiophen-2-yl)ethyl]-6,7-dimethoxy-2-methylquinazolin-4-amine] has an IC50 [1] of 66.4 nM and an IC50 [2] of 72.9 nM.
`COc1cc2nc(C)nc(NC(C)c3ccc(-c4ccccc4C(C)=O)s3)c2cc1OC` (stereo not shown) [Example 324, 1-[2-(5-{1-[(6,7-dimethoxy-2-methylquinazolin-4-yl)amino]ethyl}thiophen-2-yl)phenyl]ethanone] was tested, and the IC50 [1] was 6840 nM and the IC50 [2] was 3380 nM.
Compound `COc1cc2nc(C)nc(NC(C)c3ccc(-c4ccccc4OCCN4CCCC4)s3)c2cc1OC` (stereo not shown) [Example 325, 6,7-di methoxy-2-methyl-N-[1-(5-{2-[2-(pyrrolidin-1-yl)ethoxy]phenyl}thiophen-2-yl)ethyl]quinazolin-4-amine] has an IC50 [1] of 438 nM and an IC50 [2] of 443 nM.
With `COc1cc2nc(C)nc(NC(C)c3cccc4sc(C)cc34)c2cc1OC` (stereo not shown) [Example 330, 6,7-dimethoxy-2-methyl-N-[1-(2-methyl-1-benzothiophen-4-yl)ethyl]quinazolin-4-amine] the IC50 [1] was 547 nM and the IC50 [2] was 365 nM.
`COc1cc2nc(C)nc(NC(C)c3ccnc4sccc34)c2cc1OC` (stereo not shown) [Example 331, 6,7-dimethoxy-2-methyl-N-[1-(thieno[2,3-b]pyridin-4-yl)ethyl]quinazolin-4-amine] showed an IC50 [1] of 3170 nM and an IC50 [2] of 992 nM.
Compound `COc1cc2nc(C)nc(NC(C)c3cncc4sccc34)c2cc1OC` (stereo not shown) [Example 332, 6,7-dimethoxy-2-methyl-N-[1-(thieno[2,3-c]pyridin-4-yl)ethyl]quinazolin-4-amine] has an IC50 [1] of 11400 nM and an IC50 [2] of 2620 nM.
Work on `COc1cc2nc(C)nc(NC(C)c3nccc4sccc34)c2cc1OC` (stereo not shown) [Example 333, 6,7-dimethoxy-2-methyl-N-[1-(thieno[3,2-c]pyridin-4-yl)ethyl]quinazolin-4-amine] yielded an IC50 [1] of 14800 nM and an IC50 [2] of 6200 nM.
With `COc1cc2nc(C)nc(N[C@H](C)c3cccc(-c4c(C)n[nH]c4C)c3)c2cc1OC` [Example 334, N-{(1R)-1-[3-(3,5-dimethyl-1H-pyrazol-4-yl)phenyl]ethyl}-6,7-dimethoxy-2-methylquinazolin-4-amine] the IC50 [1] was 1410 nM and the IC50 [2] was 773 nM.
`COc1cc2nc(C)nc(N[C@H](C)c3cccc(-c4cn[nH]c4C)c3)c2cc1OC` [Example 335, 6,7-dimethoxy-2-methyl-N-{(1R)-1-[3-(5-methyl-1H-pyrazol-4-yl)phenyl]ethyl}quinazolin-4-amine] gave an IC50 [1] of 564 nM and an IC50 [2] of 371 nM.
With `COc1cc2nc(C)nc(N[C@H](C)c3cccc(-c4c(C)noc4C)c3)c2cc1OC` [Example 336, N-{(1R)-1-[3-(3,5-dimethyl-1,2-oxazol-4-yl)phenyl]ethyl}-6,7-dimethoxy-2-methyl-quinazolin-4-amine] the IC50 [1] was 1990 nM and the IC50 [2] was 1260 nM.
In the case of `COc1cc2nc(C)nc(N[C@H](C)c3cccc(-c4ccn[nH]4)c3)c2cc1OC` [Example 337, 6,7-dimethoxy-2-methyl-N-{(1R)-1-[3-(1H-pyrazol-5-yl)phenyl]ethyl}quinazolin-4-amine], the IC50 [1] is reported as 1350 nM and the IC50 [2] is reported as 806 nM.
In the case of `COc1cc2nc(C)nc(N[C@H](C)c3cccc(-c4cnn(C)c4)c3)c2cc1OC` [Example 338, 6,7-dimethoxy-2-methyl-N-{(1R)-1-[3-(1-methyl-1H-pyrazol-4-yl)phenyl]ethyl}quinazolin-4-amine], the IC50 [1] is reported as 1390 nM and the IC50 [2] is reported as 838 nM.
With `COc1cc2nc(C)nc(N[C@H](C)c3cccc(-c4ccnn4C)c3)c2cc1OC` [Example 339, 6,7-dimethoxy-2-methyl-N-{(1R)-1-[3-(1-methyl-1H-pyrazol-5-yl)phenyl]ethyl}quinazolin-4-amine] the IC50 [1] was 1990 nM and the IC50 [2] was 1380 nM.
Work on `COc1cc2nc(C)nc(N[C@H](C)c3cccc(-n4ccnc4)c3)c2cc1OC` [Example 340, N-{(1R)-1-[3-(1H-imidazol-1-yl)phenyl]ethyl}-6,7-dimethoxy-2-methylquinazolin-4-amine] yielded an IC50 [1] of 1390 nM and an IC50 [2] of 909 nM.
